Measurements from paper PMC8838847, “Design, Synthesis and Cytotoxicity of Thiazole-Based Stilbene Analogs as Novel DNA Topoisomerase IB Inhibitors” (Molecules, 2022).

Assays:
[1] = tested on: human breast cancer (MCF-7) cells; assay: MTT cytotoxicity assay, MCF-7; type: cell-based; conditions: five doses 0.01-100 µM
Procedure: (§1) The cytotoxicity of the desired compounds was assessed through MTT assay against two human cancer cell lines, human breast cancer (MCF-7) and colon cancer (HCT116), and one normal cell line, human embryonic kidney 293T (HEK293T). CPT and etoposide (VP-16) were used as positive controls. The compounds were incubated with cells for 72 h in a five-dose assay ranging from 0.01 to 100 µΜ. After the drug treatments, MTT solution was added to test the percentage growth of tumor cells.
(§2) The cells were cultured on RPMI 1640 Medium at 37 °C in a humidified atmosphere with 5% CO2. The cytotoxicities of the target compounds were evaluated through MTT assay against two human cancer cell lines (human breast cancer MCF-7 and human colon cancer HCT116). For the compound treatment experiments, the cancer cells were treated with the compounds (pre-dissolved in DMSO) via a five-dose assay ranging from 10^−8 to 10^−4 M. After incubation for 72 h at 37 °C, MTT solution (20 μL, 2.5 mg/mL) in PBS (PBS without MTT as the blank) was added to each well of the culture plate. After incubation for 4 h, the formazan crystal formed in the well was dissolved in 100 μL of DMSO for an optical density of 570 nm. The IC50 value was calculated using nonlinear regression analysis (GraphPad Prism). Every experiment was conducted three times, independently.

[2] = tested on: human colon cancer (HCT116) cells; assay: MTT cytotoxicity assay, HCT116; type: cell-based; conditions: five doses 0.01-100 µM
Procedure: as §1, §2

calf thymus Top1 = molecular target: T1, calf thymus Top1 (Bos taurus, UniProt F1MN93); assay: Top1-mediated DNA relaxation assay; type: biochemical; conditions: compounds at 50 µM; semi-quantitative, relative to CPT at 50 µM
T1 construct: 1 unit of calf thymus Top1; from tissue; host or cells: calf thymus
T1 sequence (F1MN93 1-767): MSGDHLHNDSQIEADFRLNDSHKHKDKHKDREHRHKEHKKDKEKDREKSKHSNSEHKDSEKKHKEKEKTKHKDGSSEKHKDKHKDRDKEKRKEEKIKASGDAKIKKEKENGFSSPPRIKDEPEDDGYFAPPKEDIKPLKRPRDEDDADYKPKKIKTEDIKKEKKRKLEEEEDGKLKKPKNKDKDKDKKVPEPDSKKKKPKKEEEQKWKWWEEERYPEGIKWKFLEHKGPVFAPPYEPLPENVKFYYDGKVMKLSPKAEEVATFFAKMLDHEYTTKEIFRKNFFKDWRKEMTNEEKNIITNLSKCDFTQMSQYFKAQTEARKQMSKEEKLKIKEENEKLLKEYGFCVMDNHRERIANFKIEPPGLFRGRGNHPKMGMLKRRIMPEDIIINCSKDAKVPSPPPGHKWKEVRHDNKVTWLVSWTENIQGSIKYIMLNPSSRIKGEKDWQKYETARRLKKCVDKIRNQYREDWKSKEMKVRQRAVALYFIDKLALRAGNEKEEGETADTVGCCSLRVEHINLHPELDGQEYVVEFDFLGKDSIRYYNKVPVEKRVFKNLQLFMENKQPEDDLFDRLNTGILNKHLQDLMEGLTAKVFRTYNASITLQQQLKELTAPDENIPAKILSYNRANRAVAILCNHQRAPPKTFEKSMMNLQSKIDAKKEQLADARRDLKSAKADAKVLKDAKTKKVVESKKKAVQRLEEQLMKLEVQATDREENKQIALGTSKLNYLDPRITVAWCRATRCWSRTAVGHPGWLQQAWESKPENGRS
Procedure: The synthesized compounds 6–37 were evaluated for Top1 inhibitory activity by measurement of the Top1-mediated DNA relaxation assay. The compounds were tested at 50 µΜ using CPT as positive control, and the results were semi-quantitatively expressed relative to CPT at 50 µΜ as follows: ++++, more than 80% activity; +++, between 40% and 79% activity; ++, between 10% and 39% activity; +, less than 10% activity. […] In phenyl A, the 4-position halogen (X) remarkably affected the inhibition against Top1. […] In phenyl B, the introduction of substituents at the 3-position was beneficial for the Top1 inhibition, and the derivatives presented good tolerance of the 3-substituents, since compounds 8 (++++) and 13 (+++) with electron-donating -Me or -OMe and also compound 19 (+++) with electron-withdrawing -Br had good inhibition against Top1. For substituents at the 4-position, the strong electron-withdrawing -CF3 (10, +++) and -F (15, +++) increased the Top1 inhibitory activity compared to compound 6 (R = H), while the weak electron-withdrawing -Cl (17, +) and the electron-donating -Me (9, +) and -OMe (14, +) decreased the activity, with the exception of tert-Bu (11, +++).
As previously mentioned, compound 8 had the best inhibition activity against Top1, and therefore was selected for further investigation. A semi-quantitative Top1-mediated relaxation assay of compound 8 was performed at concentrations of 0.2, 1, 5, 25 and 125 μM.
The compounds were tested for their Top1 inhibitory activity using a Top1-mediated relaxation assay. Briefly, the reaction mixture (20 μL) with 0.5 μg of supercoiled pBR322 DNA in relaxation buffer (10 mM Tris-HCl, pH 7.5, 50 mM KCl, 5 mM MgCl2, 15 μg/mL BSA, 40 μg/mL DTT) was incubated with 1 unit of calf thymus Top1 in the absence or in the presence of the compound for 30 min at 37 °C. Then, the reaction solution was added with 6 × loading buffer (4 μL) and was analyzed using a 0.8% agarose gel in TBE buffer at 4.6 V/cm for 1.5 h. Gel was stained with 1 × GelRed for 30 min and subsequently visualized with a UV transilluminator.

SMILES	IC50 ([1]; Homo sapiens, MCF7, 72 h) [µM]	IC50 ([2]; Homo sapiens, HCT-116, 72 h) [µM]	melting point [°C]	Relaxation Assay (Top1 inhibitory activity) (calf thymus Top1)	IC50 ([1]; 72 h) [µM]	IC50 ([2]; 72 h) [µM]
Fc1ccc(-c2csc(/C=C/c3ccccc3)n2)cc1 [Compound 6, (E)-4-(4-fluorophenyl)-2-styrylthiazole]	22.2 ± 5.01	5.78 ± 1.89	129 to 130			
Cc1ccccc1/C=C/c1nc(-c2ccc(F)cc2)cs1 [Compound 7, (E)-2-(2-methylstyryl)-4-(4-fluorophenyl)thiazole]	31.4 ± 4.21	6.47 ± 0.62	74 to 75			
Cc1ccc(/C=C/c2nc(-c3ccc(F)cc3)cs2)cc1 [Compound 9, (E)-2-(4-methylstyryl)-4-(4-fluorophenyl)thiazole]	65.5 ± 3.11	21.9 ± 4.29	164 to 166	+ (less than 10% activity)		
Fc1ccc(-c2csc(/C=C/c3ccc(C(F)(F)F)cc3)n2)cc1 [Compound 10, (E)-2-(4-(trifluoromethyl)styryl)-4-(4-fluorophenyl)thiazole]	17.3 ± 1.62	22.6 ± 2.41	111 to 113			
COc1ccccc1/C=C/c1nc(-c2ccc(F)cc2)cs1 [Compound 12, (E)-2-(2-methoxystyryl)-4-(4-fluorophenyl)thiazole]	49.5 ± 9.08	17.8 ± 1.16	73 to 74			
COc1cccc(/C=C/c2nc(-c3ccc(F)cc3)cs2)c1 [Compound 13, (E)-2-(3-methoxystyryl)-4-(4-fluorophenyl)thiazole]	< 10	< 5	115 to 116		9.85 ± 0.47	4.99 ± 0.8
COc1ccc(/C=C/c2nc(-c3ccc(F)cc3)cs2)cc1 [Compound 14, (E)-2-(4-methoxystyryl)-4-(4-fluorophenyl)thiazole]	> 100	> 100	124 to 125	+ (less than 10% activity)		
Fc1ccc(/C=C/c2nc(-c3ccc(F)cc3)cs2)cc1 [Compound 15, (E)-2-(4-fluorostyryl)-4-(4-fluorophenyl)thiazole]		10.2 ± 1.07	147 to 149			
Fc1ccc(-c2csc(/C=C/c3ccccc3Cl)n2)cc1 [Compound 16, (E)-2-(2-chlorostyryl)-4-(4-fluorophenyl)thiazole]	15.2 ± 1.18	8.42 ± 1.1	97 to 98			
Fc1ccc(-c2csc(/C=C/c3ccc(Cl)cc3)n2)cc1 [Compound 17, (E)-2-(4-chlorostyryl)-4-(4-fluorophenyl)thiazole]	43.3 ± 1.42	27.1 ± 0.41	171 to 173	+ (less than 10% activity)		
Fc1ccc(-c2csc(/C=C/c3ccccc3Br)n2)cc1 [Compound 18, (E)-2-(2-bromostyryl)-4-(4-fluorophenyl)thiazole]	20 ± 2.07	12.3 ± 1.1	94 to 95			
Fc1ccc(-c2csc(/C=C/c3cccc(Br)c3)n2)cc1 [Compound 19, (E)-2-(3-bromostyryl)-4-(4-fluorophenyl)thiazole]	11.5 ± 1.74	6.95 ± 0.33	142 to 144			
Fc1ccc(-c2csc(/C=C/c3ccc(Cl)cc3Cl)n2)cc1 [Compound 20, (E)-2-(2,4-Dichlorostyryl)-4-(4-fluorophenyl)thiazole]	72.4 ± 2.15	54.8 ± 0.73	131 to 133	+ (less than 10% activity)		
Cc1ccccc1/C=C/c1nc(-c2ccc(Cl)cc2)cs1 [Compound 21, (E)-4-(4-chlorophenyl)-2-(2-methylstyryl)thiazole]	39.5 ± 1.06	41.7 ± 1.92	83 to 84	+ (less than 10% activity)		
Cc1cccc(/C=C/c2nc(-c3ccc(Cl)cc3)cs2)c1 [Compound 22, (E)-4-(4-chlorophenyl)-2-(3-methylstyryl)thiazole]	> 100	> 100	133 to 134			
COc1ccccc1/C=C/c1nc(-c2ccc(Cl)cc2)cs1 [Compound 24, (E)-4-(4-chlorophenyl)-2-(2-methoxystyryl)thiazole]	> 100	49.4 ± 3.49	93 to 95			
Clc1ccc(-c2csc(/C=C/c3ccccc3Cl)n2)cc1 [Compound 25, (E)-4-(4-chlorophenyl)-2-(2-chlorostyryl)thiazole]	48.5 ± 6.67	51 ± 3.7	109 to 110	+ (less than 10% activity)		
Cc1cccc(/C=C/c2nc(-c3ccc(Br)cc3)cs2)c1 [Compound 26, (E)-4-(4-bromophenyl)-2-(3-methylstyryl)thiazole]	10.8 ± 2.42		174 to 176			
FC(F)(F)c1ccc(/C=C/c2nc(-c3ccc(Br)cc3)cs2)cc1 [Compound 27, (E)-4-(4-bromophenyl)-2-(4-(trifluoromethyl)styryl)thiazole]	24.3 ± 5.62	34.9 ± 5.66	102 to 103			
CC(C)(C)c1ccc(/C=C/c2nc(-c3ccc(Br)cc3)cs2)cc1 [Compound 28, (E)-4-(4-bromophenyl)-2-(4-(tert-butyl)styryl)thiazole]			89 to 90	+ (less than 10% activity)		
Fc1ccc(/C=C/c2nc(-c3ccc(Br)cc3)cs2)cc1 [Compound 29, (E)-4-(4-bromophenyl)-2-(4-fluorostyryl)thiazole]	> 100	63.2 ± 6.17	176 to 178			
Oc1cccc(/C=C/c2nc(-c3ccc(Br)cc3)cs2)c1 [Compound 34, (E)-3-(2-(4-(4-bromophenyl)thiazol-2-yl)vinyl)phenol]	22.8 ± 1.4	9.99 ± 0.19		+ (less than 10% activity)		
CC(C)=CCOc1cccc(/C=C/c2nc(-c3ccc(Br)cc3)cs2)c1 [Compound 36, (E)-4-(4-bromophenyl)-2-(3-((3-methylbut-2-en-1-yl)oxy)styryl)thiazole]	> 100	> 100	122 to 123			
COc1cc([C@@H]2c3cc4c(cc3[C@@H](O[C@@H]3O[C@@H]5CO[C@@H](C)O[C@H]5[C@H](O)[C@H]3O)[C@H]3COC(=O)[C@H]23)OCO4)cc(OC)c1O [vp-16, etoposide, reference compound]	24.7 ± 3.12	18.9 ± 1.35				
